Test results taken from US10800789B2, “Antiviral compounds” (Gilead Pharmasset LLC, priority 2012, dated 2020).
Like-named read-outs stand apart in the source and are kept apart here.

Key:
[1] = system: NS5A chimeric genotype 1b Con1 replicon with genotype 3a S52 strain NS5A gene; assay: Replicon assay, genotype 3a NS5A chimera; assay type: cell-based, HCV; conditions: Hepatitis C virus
[2] = system: NS5A chimeric genotype 2a JFH-1 replicon with genotype 2b MD2b-1 strain NS5A gene (M31 present); assay: Replicon assay, genotype 2b NS5A chimera; assay type: cell-based, HCV; conditions: Hepatitis C virus
Protocol: (§1) Evaluation of Cell-Based Anti-HCV Activity:
(§2) Antiviral potency (EC50) was determined using a Renilla luciferase (RLuc)-based HCV replicon reporter assay. To perform the assay for genotype 1 and 2a JFH-1, stable HCV 1a RLuc replicon cells (harboring a dicistronic genotype 1a H77 replicon that encodes a RLuc reporter), stable HCV 1b RLuc replicon cells (harboring a dicistronic genotype 1b Con1 replicon that encodes a RLuc reporter), or stable HCV 2a JFH-1 Rluc replicon cells (harboring a dicistronic genotype 2a JFH-1 replicon that encodes a RLuc reporter; with L31 present in NS5A) were dispensed into 384-well plates for EC50 assays. To perform the assay for genotype 2a (with M31 present in NS5A) or 2b, NS5A chimeric genotype 2a JFH-1 replicons that encodes a RLuc-Neo reporter and either genotype 2a J6 strain NS5A gene or genotype 2b MD2b-1 strain NS5A gene (both with M31 present) respectively, were either transiently transfected (t) into Huh-Lunet cells or were established as stably replicating replicon cells (s) is provided. Either cells were dispensed into 384-well plates for EC50 assays. To perform the assay for genotype 3 and 4, NS5A chimeric genotype 1b Con1 replicons that encodes a Pi-RLuc reporter and either genotype 3a S52 strain NS5A gene or genotype 4a ED43 strain NS5A gene respectively, were transiently transfected (t) into Huh-Lunet cells, which were subsequently dispensed into 384-well plates. Compounds were dissolved in DMSO at a concentration of 10 mM and diluted in DMSO either manually or using an automated pipeting instrument. Serially 3-fold diluted compounds were either manually mixed with cell culture media and added to the seeded cells or directly added to the cells using an automated instrument. DMSO was used as a negative (solvent; no inhibition) control, and the protease inhibitor ITMN-191 was included at a concentration>100×EC50 as a positive control. 72 hours later, cells were lysed and Renilla luciferase activity quantified as recommended by the manufacturer (Promega-Madison, Wis.). Non-linear regression was performed to calculate EC50 values.

[3] = system: stable HCV 1b RLuc replicon cells (dicistronic genotype 1b Con1 replicon); assay: Renilla luciferase HCV replicon reporter assay, genotype 1b; assay type: cell-based; conditions: Hepatitis C virus, 72 h, stable 1b Con1 RLuc replicon cells, 72 hours; read-out: 1b
Protocol: as §1, §2

[4] = system: NS5A chimeric genotype 2a JFH-1 replicon with genotype 2a J6 strain NS5A gene (M31 present); assay: Replicon assay, genotype 2a J6 NS5A chimera; assay type: cell-based, HCV; conditions: Hepatitis C virus
Protocol: as §1, §2

[5] = system: stable HCV 2a JFH-1 Rluc replicon cells (L31 present in NS5A); assay: Renilla luciferase HCV replicon reporter assay, genotype 2a JFH-1; assay type: cell-based; conditions: Hepatitis C virus
Protocol: as §1, §2

[6] = system: NS5A chimeric genotype 1b Con1 replicon with genotype 4a ED43 strain NS5A gene; assay: Replicon assay, genotype 4a NS5A chimera; assay type: cell-based, HCV; conditions: Hepatitis C virus
[7] = system: stable HCV 1a RLuc replicon cells (dicistronic genotype 1a H77 replicon); assay: Renilla luciferase HCV replicon reporter assay, genotype 1a; assay type: cell-based; conditions: Hepatitis C virus, 72 h, stable 1a H77 RLuc replicon cells
Protocol: as §1, §2

[8] = read-out: 3a (s) (nM), genotype 3a NS5A chimeric replicon, stable replicon cells (s)
[9] = read-out: 3a (s), (s), activity range
[10] = read-out: 3a (t) (nM), genotype 3a NS5A chimeric replicon, transiently transfected (t)
[11] = read-out: 3a (t), transiently transfected (t) into Huh-Lunet cells, activity range
[12] = 2BS, read-out: 2b (s), stably replicating replicon cells (s), activity range
[13] = read-out: 2b (s) (nM), genotype 2b MD2b-1 NS5A chimeric replicon (M31), stably replicating replicon cells (s)
[14] = read-out: 2a J6 (t) (nM), genotype 2a J6 NS5A chimeric replicon (M31), transiently transfected (t) into Huh-Lunet cells
[15] = read-out: 2a J6 (t), transiently transfected (t) into Huh-Lunet cells, activity range
[16] = read-out: 2a JFH (nM), genotype 2a JFH-1 replicon (L31 in NS5A), stable cells
[17] = read-out: 2a JFH, stable 2a JFH-1 Rluc replicon cells, L31 in NS5A, activity range
[18] = read-out: 4a (s) (nM), genotype 4a NS5A chimeric replicon, stable replicon cells (s)
[19] = read-out: 4a (s), (s), activity range

SMILES | EC50 [1, 8] [nM] | EC50 [1, 9] [nM] | EC50 [1, 10] [nM] | EC50 [1, 11] [nM] | EC50 [2, 12] [nM] | EC50 [2, 13] [nM] | EC50 [3] [nM] | EC50 [4, 14] [nM] | EC50 [4, 15] [nM] | EC50 [5, 16] [nM] | EC50 [5, 17] [nM] | EC50 [6, 18] [nM] | EC50 [6, 19] [nM] | EC50 [7] [nM] | EC50 ([7]; activity range) [nM]
COC(=O)NC(C(=O)N1[C@@H](C)CC[C@H]1c1nc2ccc3cc4c(cc3c2[nH]1)OCc1cc(-c2cnc([C@@H]3CC[C@H](C)N3C(=O)[C@@H](NC(=O)OC)[C@@H](C)OC)[nH]2)ccc1-4)C1CCOCC1 (stereo partly drawn) [EG, methyl{2-[(2S,5S)-2-(9-{2-[(2S,5S)-1-{(2S,3R)-3-methoxy-2-[(methoxycarbonyl)amino]butanoyl}-5-methylpyrrolidin-2-yl]-1H-imidazol-5-yl}-1,11-dihydroisochromeno[4′,3′:6,7]naphtho[1,2-d]imidazol-2-yl)-5-methylpyrrolidin-1-yl]-2-oxo-1-(tetrahydro-2H-pyran-4-yl)ethyl}carbamate] | 0.076 | < 0.1 | 0.103 | 0.1 to 0.999 | < 0.1 | 0.072 | 0.045 | 0.023 | < 0.1 | 0.022 | < 0.1 | 0.016 | < 0.1 | 0.036 | < 0.1
COC(=O)N[C@H](C(=O)N1[C@@H](C)CC[C@H]1c1nc2ccc3cc4c(cc3c2[nH]1)OCc1cc(-c2cnc([C@@H]3C[C@H](C)CN3C(=O)[C@@H](NC(=O)OC)C3CCOCC3)[nH]2)ccc1-4)C(C)C [EJ, methyl[(2S)-1-{(2S,5S)-2-[9-(2-{(2S,4S)-1-[(2S)-2-[(methoxycarbonyl)amino]-2-(tetrahydro-2H-pyran-4-yl)acetyl]-4-methylpyrrolidin-2-yl}-1H-imidazol-5-yl)-1,11-dihydroisochromeno[4′,3′:6,7]naphtho[1,2-d]imidazol-2-yl]-5-methylpyrrolidin-1-yl}-3-methyl-1-oxobutan-2-yl]carbamate] | 0.081 | < 0.1 | 0.046 | < 0.1 | 0.1 to 0.999 | 0.112 | 0.039 | 0.041 | < 0.1 | 0.028 | < 0.1 | 0.017 | < 0.1 | 0.016 | < 0.1
CC[C@H]1CC[C@@H](c2nc3ccc4cc5c(cc4c3[nH]2)OCc2cc(-c3cnc([C@@H]4CC[C@H](C)N4C(=O)[C@@H](NC(=O)OC)[C@@H](C)OC)[nH]3)ccc2-5)N1C(=O)[C@@H](NC(=O)OC)[C@@H](C)OC [EK, methyl[(2S,3R)-1-{(2S,5S)-2-[5-(2-{(2S,5S)-5-ethyl-1-[N-(methoxycarbonyl)-O-methyl-L-threonyl]pyrrolidin-2-yl}-1,11-dihydroisochromeno[4′,3′:6,7]naphtho[1,2-d]imidazol-9-yl)-1H-imidazol-2-yl]-5-methylpyrrolidin-1-yl}-3-methoxy-1-oxobutan-2-yl]carbamate] | 0.173 | 0.1 to 0.999 |  |  | 0.1 to 0.999 | 0.238 | 0.05 | 0.116 | 0.1 to 0.999 | 0.03 | < 0.1 | 0.025 | < 0.1 | 0.034 | < 0.1
CC[C@H]1CC[C@@H](c2ncc(-c3ccc4c(c3)COc3cc5c(ccc6nc([C@@H]7CC[C@H](C)N7C(=O)[C@@H](NC(=O)OC)[C@@H](C)OC)[nH]c65)cc3-4)[nH]2)N1C(=O)[C@@H](NC(=O)OC)[C@@H](C)OC [EM, methyl[(2S,3R)-1-{(2S,5S)-2-ethyl-5-[5-(2-{(2S,5S)-1-[N-(methoxycarbonyl)-O-methyl-L-threonyl]-5-methylpyrrolidin-2-yl}-1,11dihydroisochromeno[4′,3′:6,7]naphtho[1,2-d]imidazol-9-yl)-1H-imidazol-2-yl]pyrrolidin-1-yl}-3-methoxy-1-oxobutan-2-yl]carbamate] | 0.061 | < 0.1 |  |  | < 0.1 | 0.082 | 0.02 | 0.043 | < 0.1 | 0.012 | < 0.1 | 0.008 | < 0.1 | 0.013 | < 0.1
COC[C@H]1C[C@@H](c2ncc(-c3ccc4c(c3)COc3cc5c(ccc6nc([C@@H]7C[C@H](COC)CN7C(=O)[C@@H](NC(=O)OC)[C@@H](C)OC)[nH]c65)cc3-4)[nH]2)N(C(=O)[C@@H](NC(=O)OC)[C@@H](C)OC)C1 [EX, Methyl {(2S,3R)-3-methoxy-1-[(2S,4S)-2-(9-{2-[(2S,4S)-1-[N-(methoxycarbonyl)-O-methyl-L-threonyl]-4-(methoxymethyl)pyrrolidin-2-yl]-1H-imidazol-5-yl}-1,11-dihydroisochromeno[4′,3′:6,7]naphtho[1,2-d]imidazol-2-yl)-4-(methoxymethyl)pyrrolidin-1-yl]-1-oxobutan-2-yl}carbamate] | 1.69 | 1 to 44 |  |  | 0.1 to 0.999 | 0.393 | 0.197 | 0.052 | < 0.1 | 0.027 | < 0.1 | 0.072 | < 0.1 | 0.079 | < 0.1
COC(=O)N[C@H](C(=O)N1C[C@@H](C)C[C@H]1c1ncc(-c2ccc3c(c2)COc2cc4c(ccc5nc([C@@H]6C[C@H](C)CN6C(=O)[C@@H](NC(=O)OC)[C@@H](C)OC)[nH]c54)cc2-3)[nH]1)[C@@H](C)OC [EZ, Methyl [(2S,3R)-3-methoxy-1-{(2S,4S)-2-[9-(2-{(2S,4S)-1-[N-(methoxycarbonyl)-O-methyl-L-threonyl]-4-methylpyrrolidin-2-yl}-1H-imidazol-5-yl)-1,11-dihydroisochromeno[4′,3′:6,7]naphtho[1,2-d]imidazol-2-yl]-4-methylpyrrolidin-1-yl}-1-oxobutan-2-yl]carbamate] | 0.263 | 0.1 to 0.999 |  |  | 0.1 to 0.999 | 0.262 | 0.084 | 0.036 | < 0.1 | 0.016 | < 0.1 | 0.025 | < 0.1 | 0.028 | < 0.1
COC(=O)N[C@H](C(=O)N1C[C@@H](C)C[C@H]1c1ncc(-c2ccc3c(c2)COc2cc4c(ccc5nc([C@@H]6CC[C@H](C)N6C(=O)[C@@H](NC(=O)OC)C6CCOCC6)[nH]c54)cc2-3)[nH]1)C(C)C [FN, Methyl [(2S)-1-{(2S,4S)-2-[5-(2-{(2S,5S)-1-[(2S)-2-[(methoxycarbonyl)amino]-2-(tetrahydro-2H-pyran-4-yl)acetyl]-5-methylpyrrolidin-2-yl}-1,11-dihydroisochromeno[4′,3′:6,7]naphtho[1,2-d]imidazol-9-yl)-1H-imidazol-2-yl]-4-methylpyrrolidin-1-yl}-3-methyl-1-oxobutan-2-yl]carbamate] | 0.084 | < 0.1 |  |  | 0.1 to 0.999 | 0.142 | 0.053 | 0.068 | < 0.1 | 0.028 | < 0.1 | 0.02 | < 0.1 | 0.035 | < 0.1
